Entries after “also recorded” stand apart in the source; their conditions may differ. One block for each molecule: values may come before it.
How the values were obtained:
[1] = system: mcr-1 plasmid containing E. coli, K. pneumoniae, and A. baumannii; experiment: Colistin potentiation stated for all three mcr-1 strains together
[2] = system: several MDR Gram-negative bacterial strains; details: cited from earlier work
[3] = system: 4T1 cells; experiment: MTT cell viability assay; format: cell-based, mouse; details: for CT50, Compound + colistin / CT50, Compound alone: 4T1 cells, 18 h, concentration giving 50% cell viability; for CT50, Compound + colistin: with 1 μg/mL colistin; for CT50, Compound alone: without colistin
Experimental: MTT Cell Viability Assay. 4T1 cells (ATCC Manassas, Va.) were plated at a density of 1×10^4 cells/well in 96-well plates. (Roswell Park Memorial Institute Media 1640, Gibco, Gaithersburg, Md.) supplemented with 10% Fetal Bovine Serum (Gibco), 2 mM GlutaMAX (Gibco) and 50 μM 2-mercaptoethanol (Sigma Aldrich St. Louis, Mo.) and incubated at 37° C. under a 5% CO2 atmosphere in the dark for 18 h. Cell cultures were treated with serial dilutions of compounds in the presence or absence of 1 μg/mL colistin (3 replicates per condition) and incubated for an additional 18 hours. The following control conditions were used: media only (blank), 1% Triton X100 (0% cell viability), 0.5% DMSO (100% cell viability). Each condition was then treated with 10% volume of a 5 mg/mL solution of 3-(4,5-dimethylthiazol-2-yl)-2,5-diphenyltetrazolium bromide (MTT) (Sigma Aldrich) in sterile filtered 1× phosphate buffered saline (PBS) and incubated for 2 h. at 37° C. in 5% CO2, after which the media was aspirated and the resulting formazan crystals were resuspended in 100 μL acidified (4 mM HCl) isopropanol. The 96-well plate was then read at 540 nm on a FLUOstar Optima (BMG Labtech Cary, N.C.) microplate reader. Cell viability was calculated as a percentage using the two previously mentioned controls.

[4] = system: A. baumannii 3941; experiment: Colistin potentiation, chromosomally colistin resistant A. baumannii 3941; format: cell-based
Text: (§1) Broth microdilution method for antibiotic potentiation.

[5] = system: A. baumannii 4106; experiment: Colistin potentiation, chromosomally colistin resistant A. baumannii 4106; format: cell-based
Text: as §1

[6] = system: K. pneumoniae C3; experiment: Colistin potentiation, chromosomally colistin resistant K. pneumoniae C3; format: cell-based
Text: as §1

[7] = system: K. pneumoniae B9; experiment: Colistin potentiation, chromosomally colistin resistant K. pneumoniae B9; format: cell-based
Text: as §1

[8] = system: A. baumannii 17978 +mcr-1; experiment: Colistin potentiation with detergent (Tween 80); format: cell-based; details: adjuvant at 30 μM; 0.01% Tween 80
Text: Broth microdilution method for antibiotic potentiation with detergent.

[9] = system: chromosomally colistin resistant K. pneumoniae and A. baumannii strains; experiment: Colistin potentiation stated for the four chromosomally colistin resistant strains together; format: cell-based
Text: as §1

[10] = system: red blood cells; experiment: Hemolysis assay; format: cell-based, sheep
Experimental: Hemolysis assay. Hemolysis assays were performed on mechanically defibrinated sheep blood (Hemostat Labs: DSB30). Defibrinated blood (1.5 mL) was placed into a microcentrifuge tube and centrifuged for 10 min at 10,000 rpm. The supernatant was then removed, and the cells were resuspended in 1 mL of phosphate-buffered saline (PBS). The suspension was centrifuged, the supernatant was removed, and cells were resuspended two additional times. The final cell suspension was then diluted 10-fold. Test compound solutions were made in PBS in small culture tubes and then added to aliquots of the 10-fold suspension dilution of blood. PBS was used as a negative control and a zero hemolysis marker. Triton X (a 1% sample) was used as a positive control serving as the 100% lysis marker. Samples were then placed in an incubator at 37° C. while being shaken at 200 rpm for one hour. After one hour, the samples were transferred to microcentrifuge tubes and centrifuged for 10 min at 10,000 rpm. The resulting supernatant was diluted by a factor of 40 in distilled water. The absorbance of the supernatant was then measured with a UV spectrometer at a 540 nm wavelength.

[11] = system: A. baumannii 4106 infection in G. mellonella larvae; experiment: Galleria mellonella model of A. baumannii infection; format: in vivo; details: 6×10^5 CFU A. baumannii 4106, day 4
Experimental: Galleria mellonella Assay. G. mellonella larvae (Speedy Worm, Alexandria, Minn.) were used within 10 days of shipment from the vendor. After reception of worms, larvae were kept in the dark at room temperature for at least 24 h. before infection. Larvae weighing between 200 to 300 mg were used in the survival assay. Using a 10 μL glass syringe (Hamilton, Reno, Nev.) fitted with a 30 G needle (Exel International, St. Petersburg, Fla.), a 5 μL solution of the desired compound(s) and concentration(s) were injected into the last left proleg. Colistin was dosed at 50 mg/kg dissolved in DI water, 2-AIs at 50 mg/kg dissolved in DMSO, tigecycline at 100 mg/kg dissolved in DMSO, and DMSO was injected for a negative control. For bacterial injections, 1 mL from an overnight culture of A. baumannii 4106 in Miller LB broth (Fisher Scientific U.S.) was subcultured into 9 mL Miller LB broth and incubated for an additional 3 h before use. The 10 mL solution was centrifuged and washed three times with phosphate buffer solution (PBS, Fisher Scientific U.S.) before diluting to 6×10^5 CFUs in PBS. Then, 2.5 h. after the first injection, a second 5 μL injection containing 6×10^5 CFUs of A. baumannii 4106 was injected into the second to last left proleg. Injected worms were left at room temperature in the dark while being assessed at 24 h intervals over 4 days. […] Experiment was repeated 3 times using 10 larvae per experimental group. No ethics approval was needed for G. mellonella.

[12] = system: A. baumannii 4106; experiment: In vitro MIC of tigecycline; format: cell-based; details: Acinetobacter baumannii
Experimental: Broth microdilution method for MIC determination. […] Aliquots (1 mL) were placed in culture tubes and compound was added from 10 mM stock samples in DMSO, such that compound concentration equaled highest concentration tested (200 μM). Samples were then aliquoted (200 μL) into the first wells of a 96-well plate, with all remaining wells being filled with 100 μL of initial bacterial subculture. Row one wells were mixed five times, before 100 μL was transferred to row two. […] This process was repeated until the final row had been mixed; this served to serially dilute the compound.

[13] = adjuvant at 15 μM, susceptibility breakpoint 2 μg/mL
[14] = adjuvant at 7.5 μM, K. pneumoniae B9
[15] = adjuvant at 10 μM, K. pneumoniae B9
[16] = adjuvant at 15 μM, K. pneumoniae B9
[17] = adjuvant at 5 μM, K. pneumoniae B9

Compound: O=C(NCCc1c[nH]c2ccccc12)c1ccc(Cl)c(Cl)c1 [Compound 1d, N-(2-(1H-indol-3-yl)ethyl)-3,4-dichlorobenzamide]
- colistin MIC with adjuvant, all three mcr-1 strains ([1]; adjuvant at 50 μM): 2 µg/mL
- fold reduction of colistin MIC, all mcr-1 containing strains ([1]; adjuvant at 50 μM): 4-8 fold

Compound: O=C(NCCc1c[nH]c2ccccc12)c1cc(Cl)c(Cl)[nH]1 [Compound 2]
- ability to potentiate colistin activity [2]: demonstrated the ability to potentiate colistin activity

Compound: CC(C)n1cc(-c2cccc(NC(=O)Nc3cc(Br)cc(Br)c3)c2)nc1N [Compound 3]
- ability to potentiate colistin activity [2]: demonstrated the ability to potentiate colistin activity

Compound: CCNc1nccc(-c2c[nH]c3ccc(Br)cc23)n1 [Compound 4]
- ability to potentiate colistin activity [2]: demonstrated the ability to potentiate colistin activity

Compound: O=C(NCCc1c[nH]c2ccccc12)Nc1cc(Br)cc(Br)c1 [Compound 8b, 1-(2-(1H-indol-3-yl)ethyl)-3-(3,5-dibromophenyl)urea]
- colistin MIC with adjuvant, all three mcr-1 strains [1, 13]: lowered the colistin MIC to the susceptibility breakpoint
- CT50, Compound + colistin [3]: 64.2 µM
- CT50, Compound alone [3]: 86.2 µM
- colistin MIC with adjuvant ([4]; adjuvant at 10 μM): 16 µg/mL
- colistin MIC with adjuvant ([4]; adjuvant at 15 μM): 8 µg/mL
- colistin MIC with adjuvant ([4]; adjuvant at 20 μM): 8 µg/mL
- colistin MIC with adjuvant ([5]; adjuvant at 10 μM): 8 µg/mL
- colistin MIC with adjuvant ([5]; adjuvant at 15 μM): 4 µg/mL
- colistin MIC with adjuvant ([5]; adjuvant at 20 μM): 4 µg/mL
- colistin MIC with adjuvant ([6]; adjuvant at 10 μM): 8 µg/mL
- colistin MIC with adjuvant ([6]; adjuvant at 15 μM): 4 µg/mL
- colistin MIC with adjuvant ([6]; adjuvant at 20 μM): 2 µg/mL
- colistin MIC with adjuvant [7, 14]: 4 µg/mL
- colistin MIC with adjuvant ([7]; adjuvant at 8 μM, K. pneumoniae B9): 32 µg/mL
- colistin MIC with adjuvant [7, 15]: 1 µg/mL
- colistin MIC with adjuvant [7, 16]: 0.5 µg/mL

Compound: O=C(NCCc1c[nH]c2ccccc12)Nc1cc(C(F)(F)F)cc(C(F)(F)F)c1 [Compound 8c, 1-(2-(1H-indol-3-yl)ethyl)-3-(3,5-bis(trifluoromethyl)phenyl)urea]
- colistin MIC with adjuvant, all three mcr-1 strains [1, 13]: lowered the colistin MIC to the susceptibility breakpoint
- CT50, Compound + colistin [3]: 61.8 µM
- CT50, Compound alone [3]: 60.5 µM

Compound: O=C(NCCc1c[nH]c2ccccc12)Nc1ccc(Cl)c(Cl)c1 [Compound 8d, 1-(2-(1H-indol-3-yl)ethyl)-3-(3,4-dichlorophenyl)urea]
- CT50, Compound + colistin [3]: 104.8 µM
- CT50, Compound alone [3]: 117.3 µM

Compound: O=C(NCCc1c[nH]c2ccccc12)Nc1cc(Cl)c(Br)c(Cl)c1 [Compound 8e, 1-(2-(1H-indol-3-yl)ethyl)-3-(4-bromo-3,5-dichlorophenyl)urea]
- colistin MIC with adjuvant, all three mcr-1 strains [1, 13]: lowered the colistin MIC to the susceptibility breakpoint

- colistin MIC with adjuvant ([4]; adjuvant at 10 μM): 8 µg/mL
- colistin MIC with adjuvant ([4]; adjuvant at 15 μM): 4 µg/mL
- colistin MIC with adjuvant ([4]; adjuvant at 20 μM): 2 µg/mL
- colistin MIC with adjuvant ([5]; adjuvant at 10 μM): 4 µg/mL
- colistin MIC with adjuvant ([5]; adjuvant at 15 μM): 2 µg/mL
- colistin MIC with adjuvant ([5]; adjuvant at 20 μM): 2 µg/mL
- colistin MIC with adjuvant ([6]; adjuvant at 10 μM): 4 µg/mL
- colistin MIC with adjuvant ([6]; adjuvant at 15 μM): 2 µg/mL
- colistin MIC with adjuvant ([6]; adjuvant at 20 μM): 1 µg/mL
- colistin MIC with adjuvant [7, 17]: 8 µg/mL
- colistin MIC with adjuvant [7, 14]: 2 µg/mL
- colistin MIC with adjuvant [7, 15]: 1 µg/mL
- colistin MIC with adjuvant [7, 16]: 0.5 µg/mL
Compound: O=C(NCCc1c[nH]c2ccc(Br)cc12)Nc1ccc(Cl)c(Cl)c1 [Compound 9d, 1-(2-(5-bromo-1H-indol-3-yl)ethyl)-3-(3,4-dichlorophenyl)urea]
- CT50, Compound + colistin [3]: 84.6 µM
- CT50, Compound alone [3]: 125.5 µM

Compound: O=C(NCCc1c[nH]c2ccc(Br)cc12)Nc1cc(Cl)c(Br)c(Cl)c1 [Compound 9e, 1-(2-(5-bromo-1H-indol-3-yl)ethyl)-3-(4-bromo-3,5-dichlorophenyl)urea]
- resensitization to colistin, all three mcr-1 containing strains ([1]; adjuvant at 5 μM): resensitized all three mcr-1 containing bacterial strains to colistin
- colistin MIC with adjuvant, all three mcr-1 strains [1, 13]: lowered the colistin MIC to the susceptibility breakpoint
- toxicity to the 4T1 cell line [3]: generally non-toxic
- CT50, Compound + colistin [3]: 64.9 µM
- CT50, Compound alone [3]: 94.1 µM
- colistin MIC with adjuvant ([4]; adjuvant at 7.5 μM): 16 µg/mL
- colistin MIC with adjuvant ([4]; adjuvant at 10 μM): 4 µg/mL
- colistin MIC with adjuvant ([4]; adjuvant at 15 μM): 4 µg/mL
- colistin MIC with adjuvant ([4]; adjuvant at 20 μM): 2 µg/mL
- colistin sensitization activity in absence and presence of Tween 80 [8]: equipotent colistin sensitization activity in the absence and presence of Tween 80
- resensitization to breakpoint colistin levels, chromosomally resistant strains ([9]; adjuvant at 7.5 μM): resensitized three out of four chromosomally resistant strains; also recorded: resensitized three out of the four strains to breakpoint colistin levels
- colistin MIC with adjuvant, all four chromosomally colistin resistant strains (CLSI breakpoint) ([9]; adjuvant at 20 μM): < 2 µg/mL
- toxicity to red blood cells [10]: generally non-toxic
- survival of inoculated worms after 4 days, combination with colistin ([11]; 50 mg/kg compound paired with 50 mg/kg colistin): 47%
- survival of inoculated worms after 4 days, monotherapy ([11]; 50 mg/kg): 0%
- colistin MIC with adjuvant ([5]; adjuvant at 7.5 μM): 1 µg/mL
- colistin MIC with adjuvant ([5]; adjuvant at 8 μM): 4 µg/mL
- colistin MIC with adjuvant ([5]; adjuvant at 10 μM): 1 µg/mL
- fold reduction of colistin MIC ([5]; adjuvant at 10 μM): > 2000 fold
- colistin MIC with adjuvant ([5]; adjuvant at 15 μM): 0.5 µg/mL
- colistin MIC with adjuvant ([5]; adjuvant at 20 μM): 0.5 µg/mL
- colistin MIC with adjuvant ([6]; adjuvant at 7.5 μM): 2 µg/mL
- colistin MIC with adjuvant ([6]; adjuvant at 8 μM): 2 µg/mL
- colistin MIC with adjuvant ([6]; adjuvant at 10 μM): 1 µg/mL
- colistin MIC with adjuvant ([6]; adjuvant at 15 μM): 0.5 µg/mL
- colistin MIC with adjuvant ([6]; adjuvant at 20 μM): 0.5 µg/mL
- colistin MIC with adjuvant [7, 17]: 0.5 µg/mL
- fold reduction of colistin MIC ([7]; adjuvant at 5 μM, a chromosomally resistant K. pneumoniae strain (MIC 512 to 0.5 μg/mL)): 1024 fold
- fold reduction of colistin MIC [7, 15]: > 2000 fold

Compound: CC(C)n1cc(-c2cccc(NC(=O)Nc3cc(Cl)c(Br)c(Cl)c3)c2)nc1N [Compound 14, reference compound]
- CT50, Compound + colistin [3]: 15.6 µM
- CT50, Compound alone [3]: 23.2 µM

Compound: CN(C)c1cc(NC(=O)CNC(C)(C)C)c(O)c2c1C[C@H]1C[C@H]3[C@H](N(C)C)C(O)=C(C(N)=O)C(=O)[C@@]3(O)C(O)=C1C2=O [tigecycline, reference compound]
- MIC [12]: 8 µg/mL
- survival of inoculated worms after 4 days, monotherapy ([11]; 100 mg/kg): 20%
